“Also recorded” adds a separate entry of the source.
Columns and labels:
[1] = system: renin expression in CNT cells; assay: Renin expression in CNT cells by quantitative histology (renin immunostaining) after sodium diet and diuretics; assay type: in vivo, C57BL6 mice
Description: (§1) 3. Animal experiments and measurements. C57BL6 mice were used following IRB approved protocols. Twenty-four hours prior to dietary sodium manipulations, all animals were fasted with free access to water, supplemented with 2% glucose and 0.1% KCl. Either one mg/kg amiloride and 2 mg/kg furosemide (52) or control carrier were applied by subcutaneous injection. Low sodium (0.3% sodium) and high sodium (6%) diets were purchased from Purina Mills (Purina Mills Inc., St. Louis, Mo.). Blood was collected by cardiac puncture. Spot urine was collected by bladder puncture. Hemidissected kidneys were formalin-fixed or snap-frozen in liquid nitrogen. For urine collection, mice were placed in metabolic cages (Nalgene, Nalge Nunc International, Rochester, N.Y.). Urine specimens were collected at 12 h intervals in tubes containing AEBSF and 8-hydroxyquinoline (NEN-DuPont, Boston, Mass.). Weight and urine volumes were recorded daily. Urinary Ang and A-I measurements were corrected for creatinine or expressed as total urinary Ang. RNA isolation and RT-PCR were performed following standard protocols (QIAGEN, Valencia, Calif.). […]
5. […] The biotinylated secondary antibody was detected using streptavidin conjugated with horseradish peroxidase or alkaline phosphatase and visualized with either 3-amino-9-ethyl-carbazole (AEC; Sigma) or NBT/BCIP, respectively. […]
6. Quantitative histology. Renin expression in renal tubular cells as a function of sodium diet, or diuretics, was assayed by quantitating the frequency of renin immunostaining in segments of the distal nephron using the peroxidase reporter enzyme and AEC chromogen. Two independent blinded investigators scored sagittal kidney for renin using a subjective 0-4 scale: 0 equaled no tubular renin staining; 1 equaled at least one positive cell per tubule segment; 2 equaled between 25-50% of cells per of tubule segment; 3 equaled more than 50% of cells per tubule segment stained for renin; 4 equaled >75%. […] Results were analyzed by comparing the mean±S.E.M. between groups using unpaired t-tests. p<0.05 was considered significant. […]

[2] = system: renin expression in JGA; assay: JGA renin expression by semiquantitative RT-PCR of total kidney RNA; assay type: in vivo, C57BL6 mice; settings: overnight
Description: as §1, with “Ang.” for “Ang. RNA isolation and RT-PCR were performed following standard protocols (QIAGEN, Valencia, Calif.).”
On the basis of immunostaining and expression studies, we conclude that, in addition to its major site of expression in JGA, renin is also expressed in connecting tubule. […] Renin expression in CNT cells was assessed by quantitative histology (frequency of CNT cells staining for renin). […] Manipulation of dietary sodium was monitored by measuring total sodium excretion. […]

| SMILES | renin expression in distal nephron ([1]; blocking the sodium channel of principal cells (summary statement)) | CNT immunoreactive renin ([1]; high sodium diet plus amiloride (one mg/kg, subcutaneous), overnight, vs high sodium alone) | JGA renin ([2]; high sodium diet plus amiloride (one mg/kg, subcutaneous), p<0.05) | renin expression in CNT ([1]; sodium restriction plus furosemide (2 mg/kg, subcutaneous), overnight, vs sodium restriction alone) | JGA renin ([2]; sodium restriction plus furosemide (2 mg/kg, subcutaneous), vs sodium restriction alone) |
| --- | --- | --- | --- | --- | --- |
| N=C(N)NC(=O)c1nc(Cl)c(N)nc1N [amiloride] | up-regulation | increased; also recorded: marked increase | significantly decreased |  |  |
| NS(=O)(=O)c1cc(C(=O)O)c(NCc2ccco2)cc1Cl [furosemide] |  |  |  | decreased | without additional effects |
